Among the test systems are A498 renal; CAKI-1 renal; COLO 205 colon; EKVX NSCLC; IGROV1 ovarian; MCF7 breast; MDA-MB-435; NCI-H226 lung; PC-3 prostate; SW-620 colon.
Experiment in all cases: NCI anticancer screen, dose series, 48 h

Molecules are shown by their SMILES.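 Dose response: 5 concentrations. Exposure: 48 h. Format: 96-well plates. Endpoint: linear interpolation; highest concentration if not reached. At the GI50, growth is halved. TGI: concentration producing complete growth inhibition.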

This is an account of results in PubChem BioAssay (NCI).

For the molecule `CN(C)CCNC(=O)Cn1cnc2cccc([N+](=O)[O-])c2c1=O`, the TGI in the assay on A498 renal, in the assay on CAKI-1 renal, in the assay with COLO 205 colon, with EKVX NSCLC, in the assay on IGROV1 ovarian and in the assay with MCF7 breast was > 100 µM throughout. The TGI in the assay on MDA-MB-435, with NCI-H226 lung, in the assay with PC-3 prostate and in the assay on SW-620 colon was > 100 µM in each case.
On to `O=C(O)c1c(=O)cccc2ssc12`, for which the GI50 with A498 renal was 1.98 µM; in the assay on CAKI-1 renal, 12 µM; with COLO 205 colon it was 2 µM; with EKVX NSCLC, 1.35 µM; with IGROV1 ovarian, 2.39 µM; in the assay on MCF7 breast it was 1.83 µM. Further, the GI50 with MDA-MB-435 was 1.93 µM; with NCI-H226 lung, 1.87 µM; in the assay on PC-3 prostate it was 1.83 µM; with SW-620 colon, 2.22 µM. Further, the TGI in the assay with A498 renal was determined as 3.54 µM; in the assay on CAKI-1 renal it was 24.6 µM; in the assay on COLO 205 colon it was 3.91 µM; with EKVX NSCLC, 3.12 µM; in the assay with IGROV1 ovarian it was 5.91 µM; in the assay on MCF7 breast, 3.9 µM. Besides, the TGI came to 3.75 µM with MDA-MB-435, 3.6 µM in the assay on NCI-H226 lung, 3.58 µM in the assay on PC-3 prostate and 5.59 µM in the assay with SW-620 colon.
With `Cc1cc(-c2ccccn2)cc(C)c1/C=C/c1cncc(-c2nn[nH]n2)c1`, the GI50 in the assay with A498 renal, with CAKI-1 renal, in the assay on COLO 205 colon, in the assay on EKVX NSCLC, in the assay with IGROV1 ovarian and in the assay with MCF7 breast was > 25 µM throughout. For the same molecule, the GI50 with MDA-MB-435, with NCI-H226 lung, with PC-3 prostate and with SW-620 colon was > 25 µM in each case. For the same molecule, the TGI with A498 renal, in the assay on CAKI-1 renal, in the assay on COLO 205 colon, in the assay with EKVX NSCLC, in the assay with IGROV1 ovarian and in the assay on MCF7 breast was > 25 µM in each case. Besides, the TGI in the assay on MDA-MB-435, with NCI-H226 lung, in the assay on PC-3 prostate and in the assay on SW-620 colon was > 25 µM each time.
Take `COc1cc(-c2csc(NC(=O)Nc3ccc(C(F)(F)F)cc3)n2)cc(OC)c1OC`: the GI50 with A498 renal is 1.99 µM; in the assay with CAKI-1 renal, 2.41 µM; with COLO 205 colon, 2.1 µM; in the assay with EKVX NSCLC, 2.15 µM; with IGROV1 ovarian, 2.86 µM; in the assay on MCF7 breast, 2.21 µM. Besides, the GI50 in the assay on MDA-MB-435 is 1.71 µM; in the assay on NCI-H226 lung, 2.35 µM; in the assay on PC-3 prostate, 1.84 µM; in the assay with SW-620 colon, 2.19 µM. Also, the TGI in the assay on A498 renal was 5.09 µM; in the assay on CAKI-1 renal, 8.62 µM; in the assay with COLO 205 colon it was 4.5 µM; with EKVX NSCLC it was 10.2 µM; with IGROV1 ovarian, 13.5 µM; in the assay with MCF7 breast it was 7.66 µM. The TGI came out at 3.74 µM with MDA-MB-435, 8.4 µM with NCI-H226 lung, 8.2 µM in the assay with PC-3 prostate and 5.3 µM in the assay with SW-620 colon.
Take `O=C1/C(=C/c2ccc(Cl)cc2)CCC/C1=C\c1ccc(Cl)cc1`: the GI50 with A498 renal was 2.3 µM; in the assay with CAKI-1 renal, > 100 µM; with COLO 205 colon, 4.17 µM; with EKVX NSCLC, > 100 µM; with IGROV1 ovarian it was 4.13 µM; in the assay with MCF7 breast, 2.93 µM. The GI50 was 2.78 µM in the assay with MDA-MB-435, 5.18 µM in the assay on NCI-H226 lung, 5.46 µM in the assay on PC-3 prostate and 2.36 µM with SW-620 colon. For the same molecule, the TGI with A498 renal is 8.69 µM; with CAKI-1 renal, > 100 µM; in the assay with COLO 205 colon it was > 100 µM; in the assay with EKVX NSCLC it was > 100 µM; in the assay on IGROV1 ovarian it was > 100 µM; with MCF7 breast, > 100 µM. For the same molecule, the TGI is 18.8 µM with MDA-MB-435, > 100 µM in the assay with NCI-H226 lung, > 100 µM in the assay with PC-3 prostate and 6.39 µM with SW-620 colon.
Consider `CCOC(=O)C#Cc1c(C(=O)OCC)nnn1Cc1ccc([N+](=O)[O-])cc1`, for which the GI50 in the assay on A498 renal is 15.2 µM; in the assay on CAKI-1 renal it was 1.76 µM; in the assay on COLO 205 colon it was 1.97 µM; in the assay with EKVX NSCLC, 16.4 µM; in the assay on IGROV1 ovarian it was 11.9 µM; in the assay on MCF7 breast it was 2.3 µM. Also, the GI50 is 3.35 µM with MDA-MB-435, 1.72 µM in the assay on NCI-H226 lung, 10.2 µM in the assay with PC-3 prostate and 1.85 µM in the assay with SW-620 colon. Moreover, the TGI with A498 renal was 28.5 µM; in the assay on CAKI-1 renal it was 3.3 µM; in the assay on COLO 205 colon it was 3.79 µM; with EKVX NSCLC, 32.9 µM; with IGROV1 ovarian it was 28.5 µM; with MCF7 breast, 7.22 µM. The TGI in the assay on MDA-MB-435 was determined as 12.4 µM; in the assay on NCI-H226 lung, 3.33 µM; in the assay on PC-3 prostate it was 22.4 µM; in the assay with SW-620 colon it was 3.79 µM.
On to `CCOC(=O)C1=C(C)N(Cc2ccc(Cl)cc2Cl)C2(O)C=CC(=O)C3=C(O)c4ccccc4C(=O)C312` (stereo not given), for which the GI50 in the assay with A498 renal was 23.7 µM; in the assay with CAKI-1 renal, 3.31 µM; in the assay on COLO 205 colon, 4.41 µM; with EKVX NSCLC, 10.6 µM; in the assay on IGROV1 ovarian, 8.62 µM; in the assay on MCF7 breast, 2.65 µM. Moreover, the GI50 is 3.87 µM in the assay with MDA-MB-435, 3.77 µM with NCI-H226 lung, 2.16 µM in the assay on PC-3 prostate and 4.74 µM in the assay with SW-620 colon. The TGI was 59.4 µM in the assay with A498 renal; 15 µM in the assay with CAKI-1 renal; 20.6 µM with COLO 205 colon; 47.8 µM with EKVX NSCLC; > 100 µM in the assay on IGROV1 ovarian; 40.1 µM with MCF7 breast. Also, the TGI was 13.4 µM in the assay with MDA-MB-435, 27.8 µM in the assay with NCI-H226 lung, 10.5 µM in the assay with PC-3 prostate and > 100 µM in the assay on SW-620 colon.
